From patent US5733924A, “DC 107 derivatives and treatment methods” (Kyowa Hakko Kogyo Co., Ltd., priority 1995, dated 1998)
In brackets after ≈: the same amount, converted by molar mass. Where two headings read alike, the source gives them in different places. Each block holds one compound with its values, some of them ahead of it.

Tests used:
[1] = tested on: Staphylococcus aureus ATCC 6538P; assay: Antibacterial activity, agar dilution method (MIC); format: cell-based; settings: ATCC6538P
Description: (§1) The antibacterial activity as determined by the agar dilution method using a medium prepared by dissolving 3 g of Bacto-Tryptone (a product of Difco Laboratories), 3 g of a meat extract, 1 g of an yeast extract, 1 g of glucose and 16 g of agar in one liter of water (pH 7).
SA: Staphylococcus aureus ATCC 6538P

[2] = tested on: Enterococcus faecium ATCC 10541; assay: Antibacterial activity, agar dilution method (MIC); format: cell-based
Description: as §1
EF: Enterococcus faecium ATCC 10541

[3] = tested on: P388 Leukemia; assay: Antitumor activity against P388 leukemia in mice (increased life span); format: in vivo, CDF1 mice; settings: Mus musculus, P388, ip, 720 h
Experimental: Ascites were collected from the abdominal cavity of P388 ascites tumor-bearing cancer mice (DBA/2) on the 7th day after transplantation. A number of P388 cells in the ascites was counted, and a tumor cell floating liquid of 5×10^6 cells/ml was prepared using a physiological saline solution. Then, 0.2 ml of the solution containing 1×10^6 cells was transplanted into the abdominal cavity of CDF1 mice having a body weight of from 20 to 25 g.
The effect of the test compound was determined in terms of the ratio of average survival days of the group administered with the test compound to average survival days of the control group (non-medicated group) (i.e., an increased life span, ILS%).

[4] = tested on: Escherichia coli ATCC 26; assay: Antibacterial activity, agar dilution method (MIC); format: cell-based
Description: as §1
EC: Escherichia coli ATCC 26

[5] = tested on: Klebsiella pneumoniae ATCC 10031; assay: Antibacterial activity, agar dilution method (MIC); format: cell-based
Description: as §1
KP: Klebsiella pneumoniae ATCC 10031

[6] = tested on: Bacillus subtilis No. 10707; assay: Antibacterial activity, agar dilution method (MIC); format: cell-based
Description: as §1
BS: Bacillus subtilis No. 10707

[7] = Staphylococcus aureus, pH 7, read-out: MIC (minimum growth inhibitory concentration)
[8] = Enterococcus faecium, ATCC10541, pH 7, read-out: MIC (minimum growth inhibitory concentration), EF: Enterococcus faecium ATCC 10541
[9] = read-out: ILS (increased life span)
[10] = Escherichia coli, ATCC26, pH 7, read-out: MIC (minimum growth inhibitory concentration), EC: Escherichia coli ATCC 26
[11] = SA: Staphylococcus aureus ATCC 6538P, agar dilution, pH 7, read-out: MIC (minimum growth inhibitory concentration)
[12] = ATCC10031, KP: Klebsiella pneumoniae ATCC 10031, agar dilution, pH 7, read-out: MIC (minimum growth inhibitory concentration)
[13] = ATCC10541, EF: Enterococcus faecium ATCC 10541, pH 7, read-out: MIC (minimum growth inhibitory concentration)
[14] = ATCC26, EC: Escherichia coli ATCC 26, pH 7, read-out: MIC (minimum growth inhibitory concentration)
[15] = BS: Bacillus subtilis No. 10707, pH 7, read-out: MIC (minimum growth inhibitory concentration)
[16] = single i.p. 24 hours after transplantation, CDF1 mice, 30 days observation
[17] = Klebsiella pneumoniae, ATCC10031, pH 7, read-out: MIC (minimum growth inhibitory concentration)
[18] = Bacillus subtilis, NO.10707, pH 7, read-out: MIC (minimum growth inhibitory concentration), BS: Bacillus subtilis No. 10707

SMILES: C/C1=C\C(OC(=O)OCC(C)C)C(=O)/C=C/C=C\c2csc(n2)C(C)N2C(=O)CC(C(C)(O)C(=O)SCc3oc(=O)oc3C)(CC1)[S+]2[O-] (stereo not drawn) [Compound 54]
MIC [1, 7]: 0.13 µg/mL (≈ 0.18 µM) | MIC [2, 8]: 0.13 µg/mL (≈ 0.18 µM) | ILS at 2 mg/kg [3, 9]: 42% | MIC [4, 10]: 0.018 µg/mL (≈ 0.0249 µM)

MIC [1, 11]: 0.26 µg/mL (≈ 0.446 µM) | MIC [5, 12]: 4.2 µg/mL (≈ 7.21 µM) | MIC [2, 13]: 0.26 µg/mL (≈ 0.446 µM) | MIC [4, 14]: 4.2 µg/mL (≈ 7.21 µM) | MIC [6, 15]: 0.13 µg/mL (≈ 0.223 µM)
SMILES: CCOC(=O)OC1/C=C(\C)CCC2(CC(=O)NC(C)c3nc(cs3)/C=C\C=C\C1=O)[S+]([O-])SC(=O)C2(C)O (stereo not drawn) [Compound 10]

MIC [1, 11]: 2.1 µg/mL (≈ 2.5 µM) | MIC [5, 12]: 2.1 µg/mL (≈ 2.5 µM) | MIC [2, 13]: 2.1 µg/mL (≈ 2.5 µM) | MIC [6, 15]: 2.1 µg/mL (≈ 2.5 µM)
SMILES: CC1=CC(OC(=O)CNC(=O)CNC(=O)c2ccccc2)C(=O)C=CC=Cc2csc(n2)C(C)N2C(=O)CC(C(C)(O)C(=O)SCc3oc(=O)oc3C)(CC1)[S+]2[O-] (stereo not drawn) [Compound 167]
ILS at 16 mg/kg [3, 16]: 90%

MIC [1, 11]: 0.78 µg/mL (≈ 1.12 µM) | MIC [5, 12]: 0.39 µg/mL (≈ 0.561 µM) | MIC [2, 13]: 0.78 µg/mL (≈ 1.12 µM) | MIC [6, 15]: 0.26 µg/mL (≈ 0.374 µM)
SMILES: COC(C)(C)OC1/C=C(\C)CCC2(C(C)(O)C(=O)SCc3oc(=O)oc3C)CC(=O)N(C(C)c3nc(cs3)/C=C\C=C\C1=O)[S+]2[O-] (stereo not drawn) [Compound 121]

MIC [1, 11]: 0.85 µg/mL (≈ 1.22 µM) | MIC [5, 12]: 1.7 µg/mL (≈ 2.45 µM) | MIC [2, 13]: 54 µg/mL (≈ 77.7 µM) | MIC [4, 14]: 6.8 µg/mL (≈ 9.79 µM) | MIC [6, 15]: 0.11 µg/mL (≈ 0.158 µM)
SMILES: CCOC(C)OC1/C=C(\C)CCC2(C(C)(O)C(=O)SCc3oc(=O)oc3C)CC(=O)N(C(C)c3nc(cs3)/C=C\C=C\C1=O)[S+]2[O-] (stereo not drawn) [Compound 87]

SMILES: CC1=CC(OC(=O)Cc2cccnc2)C(=O)C=CC=Cc2csc(n2)C(C)N2C(=O)CC(C(C)(O)C(=O)SCc3oc(=O)oc3C)(CC1)[S+]2[O-] (stereo not drawn) [Compound 147]
ILS at 2 mg/kg ([3]; 2.0 mg/kg, single i.p. 24 hours after transplantation, CDF1 mice, 30 days observation, read-out: ILS (increased life span)): 60%

SMILES: C/C1=C\C(OC(=O)c2cnc3ccccc3n2)C(=O)/C=C/C=C\c2csc(n2)C(C)N2C(=O)CC(C(C)(O)C(=O)SCc3oc(=O)oc3C)(CC1)[S+]2[O-] (stereo not drawn) [Compound 52]
MIC [1, 7]: 0.72 µg/mL (≈ 0.924 µM) | MIC [5, 17]: 23 µg/mL (≈ 29.5 µM) | MIC [2, 8]: 0.72 µg/mL (≈ 0.924 µM) | MIC [4, 10]: 92 µg/mL (≈ 118 µM) | MIC [6, 18]: 2.9 µg/mL (≈ 3.72 µM)

MIC [1, 11]: 1.3 µg/mL (≈ 2.35 µM) | MIC [5, 12]: 10 µg/mL (≈ 18.1 µM) | MIC [2, 13]: 2.6 µg/mL (≈ 4.7 µM) | MIC [4, 14]: 42 µg/mL (≈ 76 µM) | MIC [6, 15]: 10 µg/mL (≈ 18.1 µM)
SMILES: CC(=O)OC1(C)C(=O)S[S+]([O-])C12CC/C(C)=C/C(O)C(=O)/C=C/C=C\c1csc(n1)C(C)NC(=O)C2 (stereo not drawn) [Compound 25]

SMILES: C/C1=C\C(O)C(=O)/C=C/C=C\c2csc(n2)C(C)N2C(=O)CC(C(C)(O)C(=O)SCOC(=O)C3CCC3)(CC1)[S+]2[O-] (stereo not drawn) [Compound 78]
MIC [1, 7]: 4.7 µg/mL (≈ 7.55 µM) | MIC [5, 17]: 2.3 µg/mL (≈ 3.69 µM) | MIC [2, 8]: 9.4 µg/mL (≈ 15.1 µM) | MIC [6, 18]: 0.073 µg/mL (≈ 0.117 µM)

SMILES: CC1=CC(OC(=O)CNC(=O)OCc2ccccc2)C(=O)C=CC=Cc2csc(n2)C(C)N2C(=O)CC(C(C)(O)C(=O)SCc3oc(=O)oc3C)(CC1)[S+]2[O-] (stereo not drawn) [Compound 157]
ILS at 8 mg/kg ([3]; 8.0 mg/kg, single i.p. 24 hours after transplantation, CDF1 mice, 30 days observation, read-out: ILS (increased life span)): 98%

SMILES: C/C1=C\C(OC(=O)CCNC(=O)CCNC(=O)OCc2ccccc2)C(=O)/C=C/C=C\c2csc(n2)C(C)NC(=O)CC2(CC1)[S+]([O-])SC(=O)C2(C)O (stereo not drawn) [Compound 119]
ILS at 16 mg/kg [3, 16]: 63%

SMILES: CC1=CC(OC(=O)CNC(=O)CCNC(=O)OCc2ccccc2)C(=O)C=CC=Cc2csc(n2)C(C)N2C(=O)CC(C(C)(O)C(=O)SCc3oc(=O)oc3C)(CC1)[S+]2[O-] (stereo not drawn) [Compound 169]
ILS at 16 mg/kg [3, 16]: 91%

MIC [1, 11]: 0.13 µg/mL (≈ 0.234 µM) | MIC [5, 12]: 1 µg/mL (≈ 1.8 µM) | MIC [2, 13]: 0.065 µg/mL (≈ 0.117 µM) | MIC [4, 14]: 8.3 µg/mL (≈ 15 µM) | MIC [6, 15]: 0.033 µg/mL (≈ 0.0595 µM)
SMILES: COCOC1/C=C(\C)CCC2(CC(=O)NC(C)c3nc(cs3)/C=C\C=C\C1=O)[S+]([O-])SC(=O)C2(C)O (stereo not drawn) [Compound 30]

SMILES: CC1=CC(OC(=O)CNC(=O)CN(C)C(=O)OCc2ccccc2)C(=O)C=CC=Cc2csc(n2)C(C)N2C(=O)CC(C(C)(O)C(=O)SCc3oc(=O)oc3C)(CC1)[S+]2[O-] (stereo not drawn) [Compound 172]
MIC [1, 7]: 2.1 µg/mL (≈ 2.37 µM) | MIC [5, 17]: 1 µg/mL (≈ 1.13 µM) | MIC [2, 8]: 1 µg/mL (≈ 1.13 µM) | ILS at 4 mg/kg [3, 9]: 65% | MIC [6, 18]: 1 µg/mL (≈ 1.13 µM)
